Experimental findings from a melting point compilation (Tetko et al.; mined from patent text by program, amines drawn as free bases though some values may be those of a salt) are described below.

`CCCc1nc2ccnn2c(O)c1Cc1ccc(-c2ccccc2C#N)cc1` yielded a melting point of 251 °C.

Take `CN1C(=O)COC(c2cccc(Cl)c2)c2cc(C(O)(c3ccc(Cl)cc3)c3cncn3C)ccc21` (centres undefined): the melting point came to 160 °C.

`Nc1c(Br)cc(S(=O)(=O)Cl)cc1Br` yielded a melting point of 153 to 155 °C.

In turn, `O=C(CN1CCC(Cc2ccc(F)cc2)CC1)Nc1ccc(O)cc1` gave a melting point of 70 to 77 °C.

In turn, `COc1cc(-c2cnc3[nH]cc(C(=O)Cc4ccccc4)c3n2)cc(OC)c1OC` gave a melting point of 226 to 227 °C.

Compound `CNc1ccc(-c2cnc3[nH]cc(C(=O)C4(C)CCCCC4)c3n2)cc1` returned a melting point of 273 to 275 °C.

The compound `COc1cc2c(cc1Br)-c1cc3c(n1CC2)C(=O)N(C(C)(C)C)CCCC3` came in with a melting point of 127 to 129 °C.

For the compound `NC(=O)C(CCCCCOc1c(Cl)ccc(C=O)c1[N+](=O)[O-])N1CCCCC1` (centres undefined), the melting point fell in the range of 98 to 99 °C.

`Cc1nnc(-c2nsc3ccc([N+](=O)[O-])cc23)o1` gave a melting point greater than 250 °C.

Consider `O=C1NCc2ccccc2C([N+](=O)[O-])N1` (centres undefined), for which the melting point was 93 to 95 °C.

Compound `CC=CC(C)=C1C(=O)OC(=O)C1c1cc(C)n(-c2ccc(C)cc2)c1C` (centres undefined) returned a melting point of 129 °C.

On to `CC(Cn1ncc2ccc(OCc3ccccc3)cc21)O[Si](C)(C)C(C)(C)C` (centres undefined), for which the melting point lay within 56 to 58 °C.

Compound `CCC(=O)NCCC1CCc2ccc3c(c21)OCO3` (centres undefined) had a melting point of 102 to 104 °C.

Compound `Cc1ccc([C@@H](O)[C@@H]2[C@@H](C)CCCC2(C)C)cc1` registered a melting point of 78 to 79 °C.

Compound `CN(C)CC1CCN(c2nc(N3CCCCC3)c3ncnc(N(C)Cc4cccc5ccccc45)c3n2)CC1` displayed a melting point of 150 to 151 °C.

With `Cc1nnc(-c2cc3cccc(OC[C@@H](O)CN4CCC(c5ccc6ccccc6c5)CC4)c3o2)o1`, the melting point fell in the range of 140 to 142 °C.

On to `COC(=O)c1ccc2oc(-c3cccs3)nc2c1`, for which the melting point lay within 141 to 142 °C.

`O=c1oc(-c2ccc(C#Cc3ccccc3)cc2)cc(O)c1SCCc1ccccc1`: the melting point was in the range of 181 to 182 °C.

The compound `Cc1cccc(-c2cc(O)c(Sc3ccccc3C(C)C)c(=O)o2)c1` registered a melting point of 161 to 162 °C.

On to `COc1ccc2c(c1)c(CCO)c(C)n2Cc1ccc(Cl)cc1`, for which the melting point is 113 to 115 °C.

`N=C(Nc1ccccc1C(F)(F)F)NC12CC3CC(CC(C3)C1)C2` returned a melting point of 259 to 260 °C.

Compound `CN(C)c1cc(CCl)nc(N)n1` showed a melting point of 127 to 129 °C.

`CN(C)C=Nc1nc(OS(=O)(=O)c2ccccc2)ncc1F` came in with a melting point of 124 to 125 °C.

Consider `CC(C)OC(=O)N1CCC(NC(=O)N2CCn3c(c(C(N)=O)c(C#N)c3C3CCOCC3)C2)CC1`, for which the melting point lay in the range of 124 to 126 °C.

With `COc1ccc(-c2ccc(C#N)cc2)cc1C=O`, the melting point was in the range of 146 to 147 °C.

`CCCCCCCCCCC[C@H](CC(=O)N[C@@H](CO)C(=O)OCc1ccccc1)OC(=O)CCCCCCCC` gave a melting point of 52 to 53 °C.

Compound `COCCOc1ccc(Sc2c(O)c3c(=O)n(-c4ccccc4)c4ccccc4c3oc2=O)cc1` gave a melting point of 144 to 146 °C.

The compound `COc1c(-c2cc3c(s2)CC(O)C3)ccc2c(=O)c(C(=O)O)cn(C3CC3)c12` (centres undefined) gave a melting point of 254 to 255 °C.

`O=C(c1ccncc1)c1cc2c(c(C(=O)O)c1)OC(c1ccccc1)(c1ccccc1)O2` gave a melting point of 256 to 257 °C.

`CN1C(=O)C(O)N(C2CCCCC2)C1=O` (centres undefined) returned a melting point of 140 to 141 °C.

`CC1=C(C2C=CN(C(=O)OCC(Cl)(Cl)Cl)C=C2)SC(C)C(=O)N1` (centres undefined) returned a melting point of 140 to 142 °C.

`Cc1cc2c(cc1O)C(C1(CC3CCCC3)CC1)N(C)CC2` (centres undefined): the melting point was 136 to 138 °C.

The compound `N#Cc1ccc(CCn2ccn(C3CCc4ccccc4C3)c2=S)cc1` (centres undefined) had a melting point of 169 to 170 °C.

The compound `NC(=O)c1cc(Br)ccc1Nc1ccncc1` registered a melting point of 298 to 299 °C.

Compound `CN1C[C@H](c2cnccn2)OC1=O` had a melting point of 114 °C.

For the compound `Clc1cccc(OC2CCNc3ncc(-c4ccc(N5CCOCC5)cc4)cc32)c1` (centres undefined), the melting point lay within 124 to 126 °C.

Compound `CCC(=O)NCC1Cc2cccc3cccc1c23` (centres undefined) showed a melting point of 111 °C.

In turn, `CCOc1c(C(=O)c2ccccc2)cnc2[nH]ncc12` registered a melting point of 195 to 197 °C.

Regarding `COc1ccc(-n2nnnc2C(F)(F)F)cc1C1=CC2(CCCN(C(=O)c3ccccc3)C2)OC1` (centres undefined), the melting point is 154 to 156 °C.

As to `CC(C)(C)OC(=O)N[C@@H](Cc1ccccc1)C(=O)C=[N+]=[N-]`, the melting point fell in the range of 87 to 90 °C.

In turn, `COc1cc2oc(=O)c3c(c2cc1NC(C)=O)CCN(CC(C)=O)C3` returned a melting point of 210 to 215 °C.

Compound `CCOC(=O)CNc1nc(Cl)ccc1NC(=O)c1ccc(Cl)cc1` registered a melting point of 157 to 158 °C.

`CC(=O)c1ccc2c(c1)C(c1ccccc1F)=NC(C)C(=O)N2C` (centres undefined) showed a melting point of 65 °C.

The compound `O=C(O)c1cn(-c2ccc(F)cc2)c2c(F)c(N3Cc4ccc(Cl)cc4C3)c(F)cc2c1=O` registered a melting point greater than 300 °C.

Regarding `O=C1C2CCCCC2C(=O)N1c1c(F)cc(F)cc1F` (centres undefined), the melting point is 129 to 131 °C.

As to `CCS(=O)(=O)c1ccc(-n2cncc2-c2ccc([N+](=O)[O-])cc2)cc1`, the melting point lay within 190 to 194 °C.

Regarding `COc1ccc(Cn2nc(-c3ccc(C(=O)N4Cc5cccnc5Nc5ccccc54)c(Cl)c3)nc2C)cc1`, the melting point lay within 218 to 221 °C.

`O=C(NO)[C@H]1[C@H](O)CCN1C(=O)c1ccc(OC(F)(F)F)cc1` returned a melting point of 64 to 65 °C.

Consider `CC(=O)OCCn1c(C(=O)Nc2ccc(OCC(C)(C)C)c(C#N)c2)cc2ccccc21`, for which the melting point was 169 to 170 °C.

Turning to `CCCn1nc(C(C)C)c(C(=O)OCc2ccccc2C(=O)c2ccccc2)c1Cc1ccc(-c2ccccc2S(N)(=O)=O)c(F)c1`, the melting point was 49 to 51 °C.

The compound `CSc1nc(SCc2ccccc2)n[nH]1` showed a melting point of 80 to 82 °C.

Take `CCCOc1ccc(COCC)cc1-c1nc2c(CCC)nn(C)c2c(=O)[nH]1`: the melting point was 89 to 90 °C.

Compound `CN1CCN(c2cc3ccccc3c(=O)[nH]2)[C@@H](CO)C1` had a melting point of 169 to 171 °C.

For `CCOC(=O)c1sc(S(C)(=O)=O)c2c1CCc1c(Br)nn(C)c1-2`, the melting point was in the range of 195 to 196 °C.

As to `Nc1ccccc1-c1ncn[nH]1`, the melting point lay within 145 to 148 °C.

In turn, `CCOCc1nc2c(N)nc3ccccc3c2n1CCCCC(=O)N1CCOCC1` came in with a melting point of 128 to 129 °C.

Compound `CCOC(=O)c1cc(-c2ccccc2)n(-c2ccc(S(N)(=O)=O)cc2)n1` yielded a melting point of 192 to 195 °C.

`CC(=O)C1C(C)CC2C3CCC4=CCC=CC4(C)C3CCC21C` (centres undefined) gave a melting point of 175 °C.

In the case of `COc1ccc(COCc2nc(C(C)C)c(Sc3cc(Cl)cc(Cl)c3)n2C(C)C)cc1`, the melting point fell in the range of 136 to 137 °C.

Compound `Cc1cc2cc(CN3CCCCCC3)cnc2cc1NC(=O)c1ccc(-c2ccc(F)cc2)cc1` displayed a melting point of 170 to 174 °C.

Regarding `CCOC(=O)/C=C/c1ccc(O)c([N+](=O)[O-])c1`, the melting point lay in the range of 114 to 115 °C.

On to `CCn1ncc(C(=O)c2ccc(S(C)(=O)=O)c(COC)c2C)c1O`, for which the melting point fell in the range of 116 to 118 °C.

As to `COc1cccc(C2(Cl)C(=O)Nc3ccc(Cl)cc32)c1` (centres undefined), the melting point was 170 °C.

Compound `CCN(CC)CCCNc1nc(Cl)nc(NCCCN(CC)CC)n1` yielded a melting point of 119 °C.

Take `CNS(=O)(=O)Cc1ccc2c(c1)c(CC#N)cn2Cc1ccccc1`: the melting point is 133 to 135 °C.

For `CCS(=O)(=O)c1ccc2c(c1)nc(CC(C)(C)C)n2CCOC(F)(F)F`, the melting point was 133 °C.

Compound `Cc1ccc(CC(=S)N2CCOCC2)cc1` had a melting point of 182 to 185 °C.

`Nc1csc(-c2ccccc2)c1`: the melting point is 76 to 78 °C.

Regarding `C#CCOC(=O)N(I)C(C)C(=O)O` (centres undefined), the melting point lay in the range of 95 to 99 °C.

`COc1ccc(CCC(=O)NNC(=O)c2ccc3[nH]ncc3c2)cc1C(F)(F)F` yielded a melting point of 224 to 225 °C.

`CC(=O)C1=CCC2C3CCC4CC(O)CCC4(C)C3=CCC12C` (centres undefined) yielded a melting point of 188 to 190 °C.

`C#CCN(c1nc(C)n(-c2ccc(Cl)cc2Cl)n1)c1cc(C)ccc1OC` had a melting point of 116 °C.

For the compound `Cc1cc(NC23N=CN=C2C=NC(N2CCC(C)CC2)=N3)[nH]n1` (centres undefined), the melting point is greater than 300 °C.

In turn, `CC(C)OC(=O)c1nn(-c2ccc(Cl)cc2)c(=O)c2c(N)scc12` had a melting point of 118 to 120 °C.

As to `COc1cccc(-c2ccc3c(C(=O)Nc4cccnc4)c(OC)ccc3c2)c1`, the melting point came to 154 °C.

The compound `CCNC(=O)Nc1nc2cc(-c3ccc(N(C)C)nc3)ccn2n1` gave a melting point of 285 to 290 °C.

In the case of `O=c1[nH]c2ccccc2cc1-c1csc(NS(=O)(=O)c2ccc(Cl)cc2)n1`, the melting point was greater than 300 °C.

For `COC(=O)CC(C#Cc1cccc(-c2nnc(C)o2)c1)c1ccc(OC)c(OC2CCCC2)c1` (racemic), the melting point lay within 104 to 105 °C.

`CCOC(=O)Cc1nc(-c2ccc(Cl)cc2)oc1Oc1cc(C)ccc1C` displayed a melting point of 122 to 124 °C.

In turn, `N#CCc1cc(O)c(O)c(F)c1` yielded a melting point of 100 to 101 °C.

In turn, `CNC(=O)N1CCN(C(=O)CN2CCCC2=O)CC1` registered a melting point of 203 to 205 °C.

Compound `O=C(O)CCCCCCCCc1cccs1` yielded a melting point of 32 to 33 °C.

`CCNC(=N)N1CCc2[nH]cnc2C1CC` (centres undefined) registered a melting point of 275 °C.

Turning to `COC(=O)CCC(=O)CBr`, the melting point was in the range of 12 to 15 °C.

Compound `CCOC(=O)c1cn(-c2cc(NC(=O)OCc3ccccc3)c(F)cc2F)c2cc(F)c(F)c(C)c2c1=O` registered a melting point of 202 to 204 °C.

The compound `CCC(C)(C)NC(Nc1cc(Cl)cc(Cl)c1)=C(C#N)S(=O)(=O)c1ccc(Cl)cc1` showed a melting point of 189 to 192 °C.

`O=c1c(I)c(OCc2ccc(F)cc2F)ccn1Cc1cccc(F)c1` registered a melting point of 164 to 167 °C.

For the compound `CCN1C(C(=O)Nc2coc3ccccc3c2=O)C(=O)c2ccccc2S1(=O)=O` (centres undefined), the melting point was 235 to 237 °C.

As to `Cc1c(C)c2c(c(C)c1O)C(c1ccc(N3CCOCC3)cc1)C(C)(C)O2` (centres undefined), the melting point was 91 to 93 °C.
